In publication PMC6131557, “Selective Cytotoxicity of Dihydroorotate Dehydrogenase Inhibitors to Human Cancer Cells Under Hypoxia and Nutrient-Deprived Conditions” (Frontiers in Pharmacology, 2018):
Values belong to the compound of their own block, whether it stands above or below them.

What was measured:
[1] = target: T1, human dihydroorotate dehydrogenase (HsDHODH) (Homo sapiens, UniProt Q02127); experiment: Inhibition of recombinant human DHODH enzyme activity; format: biochemical; settings: for IC50: recombinant human DHODH, purified enzyme fixed at 10 nM, read-out: IC50 (nM), inhibition of human DHODH; for inhibition at 1 µM: at 1,000 nM, read-out: Inhibition of HsDHODH activity (value in parentheses)
T1 construct: made in house

[2] = tested on: DLD-1 cells; experiment: Cytotoxicity assay (Cell Counting Kit-8 / WST-8) on DLD-1 cells; format: cell-based, human; settings: at higher concentrations (100 μM); Supplementary Figure S7
Experimental: For hypoxia and nutrient-deprived culture conditions, cells were incubated under 1% oxygen in glucose and glutamine-free DMEM (Gibco) without FBS.
DLD-1 or HDF cells were seeded at 2.5 × 10^4 cells/well on a 96-well plate with normal medium, and cultured overnight under normal culture condition. The cells were washed with PBS and the medium was replaced to either normal medium or glucose and glutamine-free DMEM without FBS. Test compounds or DMSO as a control were added to the wells. The cells in normal medium were cultured under normal culture conditions, while cells in nutrient-deprived medium were cultured under hypoxia condition. After 24 or 48 h incubation, the cells were washed with PBS, 100 μl of fresh normal medium, and 10 μl of Cell Counting Kit-8 solution (Donjindo, Japan) was added to each well. After 3 h incubation under normal culture condition, the absorbance was measured at 450 nm using SpectraMax M2e-TUY microplate reader (Molecular Devices). Cell viability of test wells was calculated based on absorbance of control wells containing DMSO according to manufacturer’s protocol.

[3] = tested on: HBC-4; experiment: 39-cancer cell panel assay: HBC-4; format: cell-based; settings: Homo sapiens, HBC4, Br
[4] = tested on: BSY-1; experiment: 39-cancer cell panel assay: BSY-1; format: cell-based; settings: Homo sapiens, Br
[5] = tested on: HBC-5; experiment: 39-cancer cell panel assay: HBC-5; format: cell-based; settings: Homo sapiens, HBC5, Br
[6] = tested on: MCF-7; experiment: 39-cancer cell panel assay: MCF-7; format: cell-based; settings: Homo sapiens, MCF7, Br
[7] = tested on: MDA-MB-231; experiment: 39-cancer cell panel assay: MDA-MB-231; format: cell-based; settings: Homo sapiens, Br
[8] = tested on: U251; experiment: 39-cancer cell panel assay: U251; format: cell-based; settings: Homo sapiens, U-251, CNS
[9] = tested on: SF-268; experiment: 39-cancer cell panel assay: SF-268; format: cell-based; settings: Homo sapiens, CNS
[10] = tested on: SF-295; experiment: 39-cancer cell panel assay: SF-295; format: cell-based; settings: Homo sapiens, CNS
[11] = tested on: SF-539; experiment: 39-cancer cell panel assay: SF-539; format: cell-based; settings: Homo sapiens, CNS
[12] = tested on: SNB-75; experiment: 39-cancer cell panel assay: SNB-75; format: cell-based; settings: Homo sapiens, CNS
[13] = tested on: SNB-78; experiment: 39-cancer cell panel assay: SNB-78; format: cell-based; settings: Homo sapiens, CNS
[14] = tested on: HCC2998; experiment: 39-cancer cell panel assay: HCC2998; format: cell-based; settings: Homo sapiens, HCC 2998, Co
[15] = tested on: KM-12; experiment: 39-cancer cell panel assay: KM-12; format: cell-based, human; settings: Co
[16] = tested on: HT-29; experiment: 39-cancer cell panel assay: HT-29; format: cell-based; settings: Homo sapiens, Co
[17] = tested on: HCT-15; experiment: 39-cancer cell panel assay: HCT-15; format: cell-based; settings: Homo sapiens, Co
[18] = tested on: HCT-116; experiment: 39-cancer cell panel assay: HCT-116; format: cell-based; settings: Homo sapiens, Co
[19] = tested on: NCI-H23; experiment: 39-cancer cell panel assay: NCI-H23; format: cell-based; settings: Homo sapiens, Lu
[20] = tested on: NCI-H226; experiment: 39-cancer cell panel assay: NCI-H226; format: cell-based; settings: Homo sapiens, Lu
[21] = tested on: NCI-H522; experiment: 39-cancer cell panel assay: NCI-H522; format: cell-based; settings: Homo sapiens, Lu
[22] = tested on: NCI-H460; experiment: 39-cancer cell panel assay: NCI-H460; format: cell-based; settings: Homo sapiens, Lu
[23] = tested on: A549; experiment: 39-cancer cell panel assay: A549; format: cell-based; settings: Homo sapiens, Lu
[24] = tested on: DMS273; experiment: 39-cancer cell panel assay: DMS273; format: cell-based; settings: Homo sapiens, DMS-273, Lu
[25] = tested on: DMS114; experiment: 39-cancer cell panel assay: DMS114; format: cell-based; settings: Homo sapiens, DMS-114, Lu
[26] = tested on: LOX-IMVI; experiment: 39-cancer cell panel assay: LOX-IMVI; format: cell-based; settings: Homo sapiens, Me
[27] = tested on: OVCAR-3; experiment: 39-cancer cell panel assay: OVCAR-3; format: cell-based; settings: Homo sapiens, Ov
[28] = tested on: OVCAR-4; experiment: 39-cancer cell panel assay: OVCAR-4; format: cell-based; settings: Homo sapiens, Ov
[29] = tested on: OVCAR-5; experiment: 39-cancer cell panel assay: OVCAR-5; format: cell-based; settings: Homo sapiens, Ov
[30] = tested on: OVCAR-8; experiment: 39-cancer cell panel assay: OVCAR-8; format: cell-based; settings: Homo sapiens, Ov
[31] = tested on: SK-OV-3; experiment: 39-cancer cell panel assay: SK-OV-3; format: cell-based; settings: Homo sapiens
[32] = tested on: RXF-631L; experiment: 39-cancer cell panel assay: RXF-631L; format: cell-based; settings: Homo sapiens, Re
[33] = tested on: ACHN; experiment: 39-cancer cell panel assay: ACHN; format: cell-based; settings: Homo sapiens, Re
[34] = tested on: St-4; experiment: 39-cancer cell panel assay: St-4; format: cell-based; settings: Homo sapiens
[35] = tested on: MKN1; experiment: 39-cancer cell panel assay: MKN1; format: cell-based; settings: Homo sapiens, MKN-1, St
[36] = tested on: MKN7; experiment: 39-cancer cell panel assay: MKN7; format: cell-based; settings: Homo sapiens, MKN-7, St
[37] = tested on: MKN28; experiment: 39-cancer cell panel assay: MKN28; format: cell-based; settings: Homo sapiens, MKN-28, St
[38] = tested on: MKN45; experiment: 39-cancer cell panel assay: MKN45; format: cell-based; settings: Homo sapiens, MKN-45, St
[39] = tested on: MKN74; experiment: 39-cancer cell panel assay: MKN74; format: cell-based; settings: Homo sapiens, MKN-74, St
[40] = tested on: DU-145; experiment: 39-cancer cell panel assay: DU-145; format: cell-based; settings: Homo sapiens, Pro
[41] = tested on: PC-3; experiment: 39-cancer cell panel assay: PC-3; format: cell-based; settings: Homo sapiens, Pro

T1 sequence (Q02127 whole entry): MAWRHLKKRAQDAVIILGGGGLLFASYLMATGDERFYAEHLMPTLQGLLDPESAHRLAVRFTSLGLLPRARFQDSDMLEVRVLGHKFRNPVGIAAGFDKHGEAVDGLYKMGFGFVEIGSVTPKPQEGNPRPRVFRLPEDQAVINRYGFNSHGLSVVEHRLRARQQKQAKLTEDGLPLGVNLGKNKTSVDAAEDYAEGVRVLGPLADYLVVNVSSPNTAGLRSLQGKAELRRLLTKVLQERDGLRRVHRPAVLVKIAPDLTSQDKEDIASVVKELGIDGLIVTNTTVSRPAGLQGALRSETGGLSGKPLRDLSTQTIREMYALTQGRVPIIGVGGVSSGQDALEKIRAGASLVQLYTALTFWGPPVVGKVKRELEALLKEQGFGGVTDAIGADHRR

fold decrease (IC50 compared to 4) ([1]; HsDHODH IC50 versus compound 4): about 3.5 fold | IC50 [1]: 349 ± 96 nM
SMILES: C/C(=C\CC/C=C/Cc1c(O)c(Cl)c(C)c(C=O)c1O)COC(=O)C(C)(C)C [Compound 13]

fold increase in the IC50 in comparison to 3 ([1]; HsDHODH IC50 versus compound 3): > 13 fold | inhibition at 1 µM [1]: 20% | IC50 [1]: > 1000 nM
SMILES: CC(C)=CCC/C(C)=C/Cc1c(O)cc(C)c(C=O)c1O [Compound 22, Colletorin B]

SMILES: C/C(O)=C(\C#N)C(=O)Nc1ccc(C(F)(F)F)cc1 [Compound A771726, teriflunomide, reference compound]
effect on DLD-1 under hypoxia/nutrient-deprived conditions (in words) [2]: specific inhibition under hypoxia/nutrient-deprived condition was observed

IC50 [1]: 3530 nM
SMILES: C/C(=C\Cc1c(O)c(Cl)c(C)c(CO)c1O)CC/C=C(\C)COC(=O)C(C)(C)C [Compound 20]

IC50 [1]: 63.9 ± 11 nM | GI50 [3]: 37 µM | GI50 [4]: 59 µM | GI50 [5]: 61 µM | GI50 [6]: 36 µM | GI50 [7]: 36 µM | GI50 [8]: 5.1 µM | GI50 [9]: 12 µM | GI50 [10]: 16 µM | GI50 [11]: 5.3 µM | GI50 [12]: 59 µM | GI50 [13]: 43 µM | GI50 [14]: 43 µM | GI50 (μM) KM-12 [15]: 32.0 µM | GI50 [16]: 39 µM | GI50 [17]: 6.2 µM | GI50 [18]: 14 µM | GI50 [19]: 39 µM | GI50 [20]: 24 µM | GI50 [21]: 22 µM | GI50 [22]: 12 µM | GI50 [23]: 37 µM | GI50 [24]: 18 µM | GI50 [25]: 35 µM | GI50 [26]: 13 µM | GI50 [27]: 27 µM | GI50 [28]: 39 µM | GI50 [29]: 58 µM | GI50 [30]: 25 µM | GI50 [31]: 27 µM | GI50 [32]: 45 µM | GI50 [33]: 22 µM | GI50 [34]: 44 µM | GI50 [35]: 44 µM | GI50 [36]: 36 µM | GI50 [37]: 36 µM | GI50 [38]: 65 µM | GI50 [39]: 26 µM | GI50 [40]: 25 µM | GI50 [41]: 22 µM
SMILES: C/C(=C\Cc1c(O)c(Cl)c(C)c(C=O)c1O)CC/C=C(\C)C(C)O (stereo not drawn) [Compound 6]

IC50 [1]: 67.2 ± 2.8 nM
SMILES: C/C(=C\COC(=O)C(C)(C)C)CC/C(C)=C/Cc1c(O)c(Cl)c(C)c(C=O)c1O [Compound 11]

inhibition at 1 µM [1]: 3% | IC50 [1]: > 1000 nM
SMILES: COc1c(Cl)c(C)c(C=O)c(O)c1C/C=C(\C)CC/C=C(\C)[C@@H]1CC(=O)C(C)(C)O1 [Compound 21]

HsDHODH inhibition activity (in words) [1]: lost | inhibition at 1 µM [1]: 3% | IC50 [1]: > 1000 nM
SMILES: CC(=O)c1c(C)c(Cl)c(O)c(C/C=C(\C)CC/C=C(\C)C2CC(=O)C(C)(C)O2)c1O (stereo not drawn) [Compound 19]

SMILES: C/C(=C\Cc1c(O)c(Cl)c(C)c(C=O)c1O)CC/C=C(\C)C1CC(=O)C(C)(C)O1 (racemic) [Compound 2, racemic-AF]
IC50 [1]: 97.4 ± 7.3 nM
